The subject of one series is hCAR or Nrf2. As to the kind of experiment: all curve and EC50 curve of selected compounds (FIG. 22-35). The format is cell-based. To be noted: for Emax: figure legend values. Here is the method: Cell lysates were assayed for luciferase activity and normalized against the activity of the Renilla luciferase using a Dual-Luciferase Kit (Promega). […] Compound 2, DL7076, was selected for further evaluation based on its effects in activating hCAR and Nrf2 using the HepG2 cell reporter assay (FIGS. 37a-37c).

The subject of another series is cleaved caspase-3. As to the kind of experiment: Cleaved caspase-3 Western blot in H9c2 cardiomyocytes. The format is cell-based, rat. To be noted: H9c2, DOX 2.5 μM. The source says:
Protein was harvested using cell lysis buffer (Cell Signaling Technology, Danvers, Mass.) with a complete protease inhibitor cocktail (Roche, Mannheim, Germany) prior to homogenizing via sonification. Homogenized protein from treated HPH, H9c2, BT549, and MDA-MB-231 cells were resolved on NuPage Novex Bis-Tris 4-12% gels (Life Technologies) or NuPage Novex Bis-Tris 12% gel and transferred through electrophoresis onto immobilon-P polyvinylidene difluoride (PVDF) membranes. Membranes were blocked with 5% BSA or 5% milk in Tris-Buffer saline with Tween 20 (TBST). Further, membranes were incubated with specific antibodies against human CYP2B6 (1:1000, Abcam), CYP3A4 (1:1000, Millipore Sigma), HO-1 (1:1000, Abcam), cleaved caspase-3 (1:1000 Cell Signaling Technologies), Nrf2 (1:1000, Abcam), TATA-Binding Protein (1:500, Santa Cruz) β-actin (1:3000, Millipore Sigma) at 4° C. overnight. Following overnight incubation, horseradish peroxidase goat anti-mouse or anti-rabbit IgG antibodies were used for secondary incubation. Membranes were developed using SuperSignal West Pico Chemiluminescent Substrate (Thermo Scientific) or Radiance Q (Azure). Two TNBC cell lines, cardiomyocytes, and HPH protein samples were isolated and resolved on a 4-12% or 12% SDS PAGE gel followed by electrophoretic transfer to a PVDF membrane. Membranes were probed 1:1000 for CYP2B6, CYP3A4, Nrf2, cleaved caspase 3, and HO-1 using β-actin (1:3000) or TBP (1:500) as a loading control.
A general note: A western blot detects proteins with antibodies after separation by electrophoresis.

The test system of another series is H9c2 cells. As to the kind of experiment: Oxidative stress imaging (DFDA) in H9c2 cells. The format is cell-based, rat. The conditions noted are these: H9c2, DOX 1, 2.5, 5 μM, 6 hours. As to the method:
H9c2 rat cardiomyocytes seeded at 0.8×10^5 in 24-well plates. […] Cells were washed 3× with PBS. Subsequently, 0.5 mL of WEM containing 20 μM 2'-7'-dichlorofluorescein diacetate (DFDA) was added to each well. The cells were incubated at 37° C. and 5% CO2 for 30 min. The oxidation of DFDA to the fluorescent dichlorofluorescein was viewed using fluorescence microscopy (Nikon Eclipse Ti) with a FITC filter at […] and quantified using Brightspot detection for fluorescent detection of triplicate images and normalized to the vehicle control (0.1% DMSO). Cells on coverslips from co-culture experiments were fixed using 4% paraformaldehyde and permealized using Triton-X 100. A primary antibody for mouse anti-phospho-H2AX ([…]) was incubated overnight. Goat anti-mouse IgG Fluor Alexa 488 (1:200) was incubated for 2 hrs. Phosphorylation was calculated through fluorescence intensity all normalized to the vehicle control.

The subject of the next series is BT549 cells. As to the kind of experiment: HPH/BT549 co-culture, CPA cytotoxicity (CCK8). Format: cell-based. The conditions noted are these: HPH/BT549 coculture, CPA 250, 500, 1000 μM, 48 hours. Here is the method: HPH were cultured in collagen-coated 24 well plates and pre-treated with vehicle control (0.1% DMSO), CITCO (1 μM) or DL7076 (5 μM or 10 μM) for 24 h. […] Following the 24 h pre-treatment, coverslips were combined in hepatocyte seeded wells and exposed to designated concentrations of cyclophosphamide in the presence or absence of DL7076 for various time intervals, as indicated.
H9c2 cells were seeded 0.8×10^5 in 24-well plates. Following cell attachment, a 2 h pre-treatment with vehicle control (0.1% DMSO), SFN (2.5 μM) or DL7076 (1 μM, 5 μM, or 10 μM) was done followed by doxorubicin (2.5 μM) exposure for 22 h. Co-culture cells were assembled and treated with cyclophosphamide and doxorubicin as indicated. A Cell Counting Kit-8 (Enzo) assay was carried out. Cell viability was described as a percent of vehicle control (0.1% DMSO). Cardiomyocyte, human iPSC-derived cardiomyocytes, and BT549 viability was determined with a 1 hr incubation of 6% CCK8 in WEM.

Ten compounds from patent publication US20230134760A1, “CAR AND NRF2 DUAL ACTIVATOR AGENTS FOR CYCLOPHOSPHAMIDE-BASED AND DOXORUBICIN-BASED TREATMENTS OF CANCER” (priority 2020, published 2023) can be followed below.

As a reminder, the EC50 is the concentration at which the effect is half-maximal. In the series on hCAR or Nrf2, `CC(CN=C=S)NC(=O)c1c(-c2ccc3ccccc3c2)nc2occn12` (stereo not drawn) [DL7091, N-(1-Isothiocyanatopropan-2-yl)-6-(naphthalen-2-yl)imidazo[2,1-b]oxazole-5-carboxamide] returned an EC50 of 4100 nM and an Emax of 3.6. On the same counts, the results for `O=C(N[C@@H]1CCCC[C@H]1N=C=S)c1c(-c2ccc3ccccc3c2)nc2occn12` (stereo in doubt) [DL7096, N-((1R,2R)-2-Isothiocyanatocyclohexyl)-6-(naphthalen-2-yl)imidazo[2,1-b]oxazole-5-carboxamide] are 330 nM and 1.1. In the series on hCAR or Nrf2, `O=C(NCCCCN=C=S)c1c(-c2ccc3ccccc3c2)nc2occn12` [DL7101, N-(4-Isothiocyanatobutyl)-6-(naphthalen-2-yl)imidazo[2,1-b]oxazole-5-carboxamide] showed an EC50 of 420 nM and an Emax of 1.6.

As to `COc1cccc2c1C(=O)c1c(O)c3c(c(O)c1C2=O)C[C@@](O)(C(=O)CO)C[C@@H]3O[C@H]1C[C@H](N)[C@H](O)[C@H](C)O1` [DOX, doxorubicin], the “cleaved caspase-3 expression, DOX alone” value in the series with cleaved caspase-3 is given as “abundance in the expression of cleaved caspase-3”. Moreover, the “ROS (fluorescence intensity), DOX alone” value in the series on H9c2 cells is reported as “concentration dependently increases ROS”. `O=C(c1c(-c2ccc3ccccc3c2)nc2occn12)N1CCC(N=C=S)CC1` [DL7077, (4-Isothiocyanatopiperidin-1-yl)(6-(naphthalen-2-yl)imidazo[2,1-b]oxazol-5-yl)methanone]: in the series on hCAR or Nrf2, the concentration for a half-maximal effect (EC50) is 4800 ± 210 nM and the Emax is 1.8. On the same counts, the results for `CC(CNC(=O)c1c(-c2ccc3ccccc3c2)nc2occn12)N=C=S` (stereo not drawn) [DL7092, N-(2-Isothiocyanatopropyl)-6-(naphthalen-2-yl)imidazo[2,1-b]oxazole-5-carboxamide] are 32000 nM and 6.0. On the same counts, the results for `O=C(NCCCN=C=S)c1c(-c2ccc3ccccc3c2)nc2occn12` [DL7087, N-(3-Isothiocyanatopropyl)-6-(naphthalen-2-yl)imidazo[2,1-b]oxazole-5-carboxamide] are 1100 ± 430 nM and 1.27.

In the series on hCAR or Nrf2, `O=C(NCC(N=C=S)c1ccccc1)c1c(-c2ccc3ccccc3c2)nc2occn12` (stereo not drawn) [DL7055-2, N-(2-Isothiocyanato-2-phenylethyl)-6-(naphthalen-2-yl)imidazo[2,1-b]oxazole-5-carboxamide] gave an EC50 of 19000 ± 80 nM and an Emax of 6.2. In the case of `O=P1(N(CCCl)CCCl)NCCCO1` (stereo not shown) [CPA, cyclophosphamide], the “BT549 viability, CPA alone” value with BT549 cells is “decreased the viability of the BT549 cells in a concentration-dependent manner”. On to `O=C(NCCN=C=S)c1c(-c2ccc3ccccc3c2)nc2occn12` [DL7009, N-(2-Isothiocyanatoethyl)-6-(naphthalen-2-yl)imidazo[2,1-b]oxazole-5-carboxamide], for which, in the series with hCAR or Nrf2, a half-maximal response (EC50) required 930 nM and the Emax stood at 1.4.
